This note sets out measurements from ChEMBL document CHEMBL3792292, “Development of a potent and selective FLT3 kinase inhibitor by systematic expansion of a non-selective fragment-screening hit” (Bioorg Med Chem Lett, 2016).

The target in test [1] is T1, Lymphokine-activated killer T-cell-originated protein kinase (Homo sapiens) (UniProt Q96KB5).
T1 sequence (whole entry): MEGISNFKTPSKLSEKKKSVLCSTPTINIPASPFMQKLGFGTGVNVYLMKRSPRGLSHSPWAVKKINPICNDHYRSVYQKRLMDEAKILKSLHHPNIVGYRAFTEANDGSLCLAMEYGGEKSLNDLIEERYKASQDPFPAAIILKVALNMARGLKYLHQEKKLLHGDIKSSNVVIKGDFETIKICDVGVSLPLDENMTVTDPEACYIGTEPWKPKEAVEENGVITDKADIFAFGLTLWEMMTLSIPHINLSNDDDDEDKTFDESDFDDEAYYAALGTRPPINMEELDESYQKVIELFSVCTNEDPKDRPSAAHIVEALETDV
The test is described as follows: Inhibition of full length human N-terminal GST-tagged PBK (1 to 322 residues) expressed in baculovirus expression system using fluorescence labelled histone H3 peptide substrate at 50 times IC50 by electrophoretic mobility shift assay relative to control.

Test [2] addresses Tyrosine-protein kinase ABL1 (Homo sapiens) (UniProt P00519). Kind of test: Inhibition of full length human N-terminal His-tagged ABL (2 to 1130 residues) expressed in baculovirus expression system using fluorescence labelled ABLtide as substrate at 50 times IC50 by electrophoretic mobility shift assay relative to control. (A gel shift assay detects complexes by their altered migration in electrophoresis.)

Test [3] deals with Ribosomal protein S6 kinase beta-1 (Homo sapiens) (UniProt P23443). Kind of test: Inhibition of human N-terminal GST-tagged p70S6K catalytic domain (1 to 421 residues) expressed in baculovirus expression system coexpressing His-tagged PDK1 (1 to 556 residues) using fluorescence labelled S6K2 peptide substrate at 50 times IC50 by electrophoretic mobility shift assay relative to control.
Chain of Ribosomal protein S6 kinase beta-1 (Homo sapiens) (P23443 whole entry, looked up, the tested form may be a part): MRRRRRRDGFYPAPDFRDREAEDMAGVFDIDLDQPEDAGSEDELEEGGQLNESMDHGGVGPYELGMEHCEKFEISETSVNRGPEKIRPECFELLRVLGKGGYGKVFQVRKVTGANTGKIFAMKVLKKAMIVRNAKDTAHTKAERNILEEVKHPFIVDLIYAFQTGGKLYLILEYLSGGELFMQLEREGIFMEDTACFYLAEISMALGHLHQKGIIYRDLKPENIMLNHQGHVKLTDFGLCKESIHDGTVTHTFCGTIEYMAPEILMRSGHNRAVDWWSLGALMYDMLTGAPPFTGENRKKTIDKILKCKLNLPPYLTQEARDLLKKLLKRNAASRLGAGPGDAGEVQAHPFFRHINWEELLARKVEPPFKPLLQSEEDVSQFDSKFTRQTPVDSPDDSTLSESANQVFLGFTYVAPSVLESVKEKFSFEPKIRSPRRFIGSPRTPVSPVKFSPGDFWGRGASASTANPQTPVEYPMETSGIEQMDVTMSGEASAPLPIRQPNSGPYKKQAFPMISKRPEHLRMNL

Test [4] addresses AMP-activated protein kinase, AMPK (Homo sapiens) (UniProt P54646+O43741+P54619+Q9UGJ0+Q9Y478+Q13131+Q9UGI9). The test is described as follows: Inhibition of human N-terminal GST-tagged AMPKalpha1 (1 to 550 residues)/beta1 (1 to 270 residues)/gamma1 (1 to 331 residues) expressed in baculovirus expression system using fluorescence labelled SAMS peptide substrate at 50 times IC50 by electrophoretic mobility shift assay relative to control.

For test [5], the target named is Protein kinase C alpha type (Homo sapiens) (UniProt P17252). The test is described as follows: Inhibition of full length human N-terminal GST-tagged PKCalpha (1 to 672 residues) expressed in baculovirus expression system using fluorescence labelled PKC peptide substrate at 50 times IC50 by electrophoretic mobility shift assay relative to control.
Test [6] addresses Rho-associated protein kinase 1 (Homo sapiens) (UniProt Q13464). The test is described as follows: Inhibition of human N-terminal GST-tagged ROCK1 catalytic domain (1 to 477 residues) expressed in baculovirus expression system using fluorescence labelled LIMKtide substrate at 50 times IC50 by electrophoretic mobility shift assay relative to control.
Test [7] addresses T2, Serine/threonine-protein kinase Nek2 (Homo sapiens) (UniProt P51955).
T2 sequence (whole entry): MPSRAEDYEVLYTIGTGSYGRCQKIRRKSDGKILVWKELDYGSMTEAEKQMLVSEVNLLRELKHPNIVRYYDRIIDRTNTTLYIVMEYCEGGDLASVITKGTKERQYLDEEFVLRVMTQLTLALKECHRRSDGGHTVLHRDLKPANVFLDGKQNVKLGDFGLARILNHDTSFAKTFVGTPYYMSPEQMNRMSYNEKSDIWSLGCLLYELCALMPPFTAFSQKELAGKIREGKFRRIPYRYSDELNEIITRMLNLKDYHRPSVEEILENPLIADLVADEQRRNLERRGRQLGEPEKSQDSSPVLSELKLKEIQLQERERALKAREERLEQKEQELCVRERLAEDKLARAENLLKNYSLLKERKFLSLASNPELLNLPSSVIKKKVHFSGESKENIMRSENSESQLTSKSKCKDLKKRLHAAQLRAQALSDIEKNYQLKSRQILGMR
Kind of test: Inhibition of full length human N-terminal His-tagged NEK2 (1 to 445 residues) expressed in baculovirus expression system using fluorescence labelled CDK7 peptide substrate at 50 times IC50 by electrophoretic mobility shift assay relative to control.

For test [8], the target named is T3, Tyrosine-protein kinase receptor TYRO3 (Homo sapiens) (UniProt Q06418).
T3 sequence (whole entry): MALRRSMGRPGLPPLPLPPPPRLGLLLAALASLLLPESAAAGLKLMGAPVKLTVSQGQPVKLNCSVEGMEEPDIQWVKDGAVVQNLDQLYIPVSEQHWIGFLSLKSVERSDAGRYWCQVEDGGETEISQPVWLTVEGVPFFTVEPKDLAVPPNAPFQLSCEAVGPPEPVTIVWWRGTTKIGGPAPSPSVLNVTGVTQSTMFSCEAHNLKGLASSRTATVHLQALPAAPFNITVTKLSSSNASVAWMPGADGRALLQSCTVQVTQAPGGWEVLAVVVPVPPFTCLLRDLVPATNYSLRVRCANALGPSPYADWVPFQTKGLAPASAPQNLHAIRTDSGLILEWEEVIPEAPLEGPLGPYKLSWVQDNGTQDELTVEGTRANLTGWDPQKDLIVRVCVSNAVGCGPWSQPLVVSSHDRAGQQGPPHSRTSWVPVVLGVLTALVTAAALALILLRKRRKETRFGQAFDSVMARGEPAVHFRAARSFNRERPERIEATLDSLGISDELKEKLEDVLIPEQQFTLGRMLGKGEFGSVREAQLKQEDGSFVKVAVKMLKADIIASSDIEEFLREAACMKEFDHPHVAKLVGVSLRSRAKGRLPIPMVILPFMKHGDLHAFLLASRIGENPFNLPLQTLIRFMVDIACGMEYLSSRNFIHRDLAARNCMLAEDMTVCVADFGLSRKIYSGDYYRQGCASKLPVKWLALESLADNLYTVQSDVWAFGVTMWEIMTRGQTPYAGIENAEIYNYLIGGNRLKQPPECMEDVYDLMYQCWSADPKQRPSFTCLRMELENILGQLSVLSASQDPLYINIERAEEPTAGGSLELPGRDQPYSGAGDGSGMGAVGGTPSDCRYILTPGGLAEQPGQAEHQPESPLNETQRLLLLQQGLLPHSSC
Kind of test: Inhibition of human N-terminal GST-tagged TYRO3 cytoplasmic domain (453 to 890 residues) expressed in baculovirus expression system using fluorescence labelled CSKtide as substrate at 50 times IC50 by electrophoretic mobility shift assay relative to control.

For test [9], the target named is Mitogen-activated protein kinase kinase kinase kinase 4 (Homo sapiens, UniProt O95819). Kind of test: Inhibition of human N-terminal GST-tagged HGK catalytic domain (1 to 328 residues) expressed in baculovirus expression system using fluorescence labelled moesin-derived peptide substrate at 50 times IC50 by electrophoretic mobility shift assay relative to control.
Chain of Mitogen-activated protein kinase kinase kinase kinase 4 (O95819 2-1239 limits assumed): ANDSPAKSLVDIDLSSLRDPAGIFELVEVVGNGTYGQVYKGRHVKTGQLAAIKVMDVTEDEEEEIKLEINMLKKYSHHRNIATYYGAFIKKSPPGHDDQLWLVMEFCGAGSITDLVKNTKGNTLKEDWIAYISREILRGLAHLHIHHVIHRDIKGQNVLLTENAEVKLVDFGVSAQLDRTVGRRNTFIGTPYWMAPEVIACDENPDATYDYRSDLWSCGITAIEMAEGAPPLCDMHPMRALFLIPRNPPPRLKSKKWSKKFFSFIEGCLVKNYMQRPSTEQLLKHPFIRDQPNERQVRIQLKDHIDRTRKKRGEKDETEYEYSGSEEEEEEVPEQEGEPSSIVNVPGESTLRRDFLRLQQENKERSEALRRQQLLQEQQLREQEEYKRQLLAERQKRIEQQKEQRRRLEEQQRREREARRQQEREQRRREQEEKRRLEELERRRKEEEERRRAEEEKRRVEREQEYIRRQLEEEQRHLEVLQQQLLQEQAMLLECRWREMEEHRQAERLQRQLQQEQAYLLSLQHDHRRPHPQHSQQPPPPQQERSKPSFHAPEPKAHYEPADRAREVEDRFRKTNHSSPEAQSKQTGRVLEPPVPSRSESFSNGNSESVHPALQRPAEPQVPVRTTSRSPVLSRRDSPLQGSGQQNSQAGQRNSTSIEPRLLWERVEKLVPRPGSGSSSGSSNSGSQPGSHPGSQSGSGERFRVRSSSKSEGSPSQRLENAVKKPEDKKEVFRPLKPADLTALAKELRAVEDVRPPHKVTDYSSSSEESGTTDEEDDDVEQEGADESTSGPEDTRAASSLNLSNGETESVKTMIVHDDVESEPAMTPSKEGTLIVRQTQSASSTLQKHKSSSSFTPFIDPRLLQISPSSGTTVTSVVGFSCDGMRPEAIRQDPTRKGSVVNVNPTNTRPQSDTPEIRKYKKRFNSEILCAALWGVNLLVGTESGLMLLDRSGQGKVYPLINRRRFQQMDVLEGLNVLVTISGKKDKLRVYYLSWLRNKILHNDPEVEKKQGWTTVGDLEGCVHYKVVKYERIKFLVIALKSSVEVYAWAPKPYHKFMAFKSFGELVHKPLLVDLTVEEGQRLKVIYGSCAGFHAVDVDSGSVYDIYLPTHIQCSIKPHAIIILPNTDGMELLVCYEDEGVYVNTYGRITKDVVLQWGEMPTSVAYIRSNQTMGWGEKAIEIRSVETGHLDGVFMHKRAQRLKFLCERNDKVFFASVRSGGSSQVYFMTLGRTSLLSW

Chain of Rho-associated protein kinase 1 (Homo sapiens) (Q13464 2-1354 limits assumed): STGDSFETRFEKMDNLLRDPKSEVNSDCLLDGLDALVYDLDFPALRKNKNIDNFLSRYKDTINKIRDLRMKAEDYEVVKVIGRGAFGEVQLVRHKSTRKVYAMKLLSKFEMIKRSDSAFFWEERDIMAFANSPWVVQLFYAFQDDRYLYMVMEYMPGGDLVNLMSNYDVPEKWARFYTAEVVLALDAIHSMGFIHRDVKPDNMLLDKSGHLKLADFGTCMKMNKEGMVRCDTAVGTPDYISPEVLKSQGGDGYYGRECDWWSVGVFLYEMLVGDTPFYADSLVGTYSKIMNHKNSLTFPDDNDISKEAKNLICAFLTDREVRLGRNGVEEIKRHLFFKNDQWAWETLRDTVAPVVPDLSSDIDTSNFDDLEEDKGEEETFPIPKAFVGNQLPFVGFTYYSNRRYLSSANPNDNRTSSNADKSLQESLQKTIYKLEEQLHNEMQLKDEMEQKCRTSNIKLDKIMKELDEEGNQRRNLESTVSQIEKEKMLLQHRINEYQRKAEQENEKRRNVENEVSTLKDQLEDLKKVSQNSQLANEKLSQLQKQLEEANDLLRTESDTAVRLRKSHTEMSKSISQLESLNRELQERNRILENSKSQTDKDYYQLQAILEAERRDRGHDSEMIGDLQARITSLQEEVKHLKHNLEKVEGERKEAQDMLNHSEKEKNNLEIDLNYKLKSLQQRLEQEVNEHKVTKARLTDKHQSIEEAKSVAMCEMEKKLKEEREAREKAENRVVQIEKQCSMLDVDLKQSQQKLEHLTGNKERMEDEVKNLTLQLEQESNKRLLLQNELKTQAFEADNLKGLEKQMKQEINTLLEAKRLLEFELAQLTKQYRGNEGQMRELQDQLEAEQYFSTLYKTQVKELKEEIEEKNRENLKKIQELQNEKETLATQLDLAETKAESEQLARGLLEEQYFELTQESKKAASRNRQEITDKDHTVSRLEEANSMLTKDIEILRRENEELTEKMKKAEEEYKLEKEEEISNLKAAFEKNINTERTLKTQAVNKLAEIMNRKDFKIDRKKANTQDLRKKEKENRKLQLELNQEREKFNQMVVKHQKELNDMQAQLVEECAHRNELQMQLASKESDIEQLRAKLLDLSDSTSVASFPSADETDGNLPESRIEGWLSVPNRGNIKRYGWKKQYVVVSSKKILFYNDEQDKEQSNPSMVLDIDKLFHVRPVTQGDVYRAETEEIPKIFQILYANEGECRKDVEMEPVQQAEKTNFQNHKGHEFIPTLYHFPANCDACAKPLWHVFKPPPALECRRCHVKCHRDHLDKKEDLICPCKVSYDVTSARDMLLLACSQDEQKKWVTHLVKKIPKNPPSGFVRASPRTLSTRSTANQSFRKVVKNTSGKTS
Chain of Tyrosine-protein kinase ABL1 (Homo sapiens) (P00519 whole entry, the tested form may be a part): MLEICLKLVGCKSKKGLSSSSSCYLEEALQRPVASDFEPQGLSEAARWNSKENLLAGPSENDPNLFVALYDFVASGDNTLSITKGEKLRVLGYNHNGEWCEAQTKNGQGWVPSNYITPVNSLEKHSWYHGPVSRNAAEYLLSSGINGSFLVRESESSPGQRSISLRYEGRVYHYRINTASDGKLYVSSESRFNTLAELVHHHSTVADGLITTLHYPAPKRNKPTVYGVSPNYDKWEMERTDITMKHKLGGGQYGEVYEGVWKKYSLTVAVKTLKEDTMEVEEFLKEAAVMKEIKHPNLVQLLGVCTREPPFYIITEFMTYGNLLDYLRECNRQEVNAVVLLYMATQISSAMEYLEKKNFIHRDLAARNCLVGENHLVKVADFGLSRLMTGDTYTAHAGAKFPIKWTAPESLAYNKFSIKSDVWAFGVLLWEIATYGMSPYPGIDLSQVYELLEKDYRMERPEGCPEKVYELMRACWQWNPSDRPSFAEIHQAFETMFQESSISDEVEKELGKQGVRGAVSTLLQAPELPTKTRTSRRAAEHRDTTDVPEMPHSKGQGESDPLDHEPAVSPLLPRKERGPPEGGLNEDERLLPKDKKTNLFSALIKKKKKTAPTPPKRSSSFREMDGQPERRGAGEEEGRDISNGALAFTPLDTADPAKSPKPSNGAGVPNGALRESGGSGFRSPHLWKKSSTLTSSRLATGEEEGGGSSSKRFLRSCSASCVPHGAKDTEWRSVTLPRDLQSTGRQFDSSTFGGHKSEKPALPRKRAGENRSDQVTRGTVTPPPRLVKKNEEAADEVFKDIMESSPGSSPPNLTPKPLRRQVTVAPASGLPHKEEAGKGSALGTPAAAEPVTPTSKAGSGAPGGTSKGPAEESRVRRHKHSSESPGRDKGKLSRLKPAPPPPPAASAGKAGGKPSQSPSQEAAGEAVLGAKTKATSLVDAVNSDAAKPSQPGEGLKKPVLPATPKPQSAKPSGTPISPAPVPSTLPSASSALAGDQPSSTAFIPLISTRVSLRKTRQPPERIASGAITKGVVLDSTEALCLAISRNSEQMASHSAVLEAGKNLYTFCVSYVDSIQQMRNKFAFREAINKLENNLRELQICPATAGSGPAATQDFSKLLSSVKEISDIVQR

As for `O=C(Nc1ccc(CN2CCN(c3ccccc3)CC2)cc1)c1n[nH]c2ccccc12`, the inhibition (usually the relative decrease from the control value, in per cent) in test [1] was -3.1%; in test [2], 3.4%; in test [3], 17.8%; in test [4], 9.2%; in [5], -0.9%; in test [6], 1.9%. Also, the inhibition in test [7] is -2.3%; in test [8], 3.6%; in [9], 62.8%.
As for `O=C(Nc1ccc(C(=O)N2CCN(c3ccccc3)CC2)cc1)c1n[nH]c2ccccc12`, the inhibition in test [1] was -1.9%; in test [2] it was 3.9%; in test [3], 43%; in test [4] it was 18%; in [5], 10.6%; in test [6] it was 6.9%. The inhibition in test [7] was determined as 0.2%; in test [8], 9.3%; in [9], 90.6%.
`O=C(Nc1ccccc1)c1n[nH]c2ccccc12`: the inhibition is 4.5% in test [1]; 5.3% in test [2]; 47.3% in test [3]; 46% in test [4]; 2.4% in test [5]; 3.3% in test [6]. The inhibition in test [7] was found to be 2.3%; in test [8], 10.6%; in [9], 92.5%.
